{"source": "ChEMBL document CHEMBL1201862", "about": "“PubChem BioAssay data set” (2004)", "assay_in_all_cases": "NCI anticancer screen, dose series, 48 h", "key": {"[1]": {"system": "RXF 393"}, "[2]": {"system": "PC-3"}, "[3]": {"system": "SNB-75"}, "[4]": {"system": "SF-295"}, "[5]": {"system": "HCT-15"}, "[6]": {"system": "HT-29"}, "[7]": {"system": "K562"}, "[8]": {"system": "NCI/ADR-RES"}, "[9]": {"system": "M14"}, "[10]": {"system": "NCI-H226"}, "[11]": {"system": "SN12C"}, "[12]": {"system": "Hs-578T"}, "[13]": {"system": "OVCAR-3"}, "[14]": {"system": "NCI-H460"}, "[15]": {"system": "MDA-N"}, "[16]": {"system": "HOP-92"}, "[17]": {"system": "MOLT-4"}, "[18]": {"system": "SK-OV-3"}, "[19]": {"system": "SK-MEL-5"}, "[20]": {"system": "HCC 2998"}, "[21]": {"system": "SNB-19"}, "[22]": {"system": "UACC-257"}, "[23]": {"system": "CCRF-CEM"}, "[24]": {"system": "MDA-MB-435"}, "[25]": {"system": "SK-MEL-28"}, "[26]": {"system": "LOX IMVI"}, "[27]": {"system": "MDA-MB-231"}, "[28]": {"system": "NCI-H23"}, "[29]": {"system": "HCT-116"}, "[30]": {"system": "A549"}, "[31]": {"system": "DU-145"}, "[32]": {"system": "MCF7"}, "[33]": {"system": "OVCAR-8"}, "[34]": {"system": "T47D"}, "[35]": {"system": "HL-60"}, "[36]": {"system": "ACHN"}, "[37]": {"system": "UO-31"}, "[38]": {"system": "COLO 205"}, "[39]": {"system": "KM12"}, "[40]": {"system": "SR"}, "[41]": {"system": "SF-268"}, "[42]": {"system": "SW-620"}, "[43]": {"system": "U-251"}, "[44]": {"system": "TK-10"}, "[45]": {"system": "RPMI-8226"}, "[46]": {"system": "Malme-3M"}, "[47]": {"system": "CAKI-1"}, "[48]": {"system": "UACC-62"}, "[49]": {"system": "HOP-62"}, "[50]": {"system": "786-0"}, "[51]": {"system": "SK-MEL-2"}, "[52]": {"system": "OVCAR-5"}, "[53]": {"system": "SF-539"}, "[54]": {"system": "IGROV-1"}, "[55]": {"system": "EKVX"}, "[56]": {"system": "OVCAR-4"}}, "note": "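Tested at 5 concentrations; 48 h exposure; 96-well plates; endpoints linearly interpolated, else capped at highest concentration. GI50 = concentration required for 50% inhibition of growth.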 Active and inactive are the calls of the source. Rule as the data show it: active = GI50 up to about 1.1 µM and inactive = higher.", "data": [{"compound": "CCOC(O)C(F)(F)F", "note": "(configuration not stated)", "values": [{"measurement": "GI50", "setting": "[1]", "result": "> 100 µM (inactive)"}, {"measurement": "GI50", "setting": "[2]", "result": "> 100 µM (inactive)"}, {"measurement": "GI50", "setting": "[3]", "result": "> 100 µM (inactive)"}, {"measurement": "GI50", "setting": "[4]", "result": "> 100 µM (inactive)"}, {"measurement": "GI50", "setting": "[5]", "result": "> 100", "unit": "µM"}, {"measurement": "GI50", "setting": "[6]", "result": "> 100 µM (inactive)"}, {"measurement": "GI50", "setting": "[7]", "result": "> 100 µM (inactive)"}, {"measurement": "GI50", "setting": "[8]", "result": "> 100 µM (inactive)"}, {"measurement": "GI50", "setting": "[9]", "result": "> 100 µM (inactive)"}, {"measurement": "GI50", "setting": "[10]", "result": "> 100 µM (inactive)"}, {"measurement": "GI50", "setting": "[11]", "result": "> 100 µM (inactive)"}, {"measurement": "GI50", "setting": "[12]", "result": "> 100 µM (inactive)"}, {"measurement": "GI50", "setting": "[13]", "result": "> 100 µM (inactive)"}, {"measurement": "GI50", "setting": "[14]", "result": "> 100 µM (inactive)"}, {"measurement": "GI50", "setting": "[15]", "result": "> 100 µM (inactive)"}, {"measurement": "GI50", "setting": "[16]", "result": "> 100 µM (inactive)"}, {"measurement": "GI50", "setting": "[17]", "result": "> 100 µM (inactive)"}, {"measurement": "GI50", "setting": "[18]", "result": "> 100 µM (inactive)"}, {"measurement": "GI50", "setting": "[19]", "result": "> 100 µM (inactive)"}, {"measurement": "GI50", "setting": "[20]", "result": "> 100 µM (inactive)"}, {"measurement": "GI50", "setting": "[21]", "result": "> 100 µM (inactive)"}, {"measurement": "GI50", "setting": "[22]", "result": "> 100 µM (inactive)"}, {"measurement": "GI50", "setting": "[23]", "result": "> 100 µM (inactive)"}, {"measurement": "GI50", "setting": "[24]", "result": "> 100 µM (inactive)"}, {"measurement": "GI50", "setting": "[25]", "result": "> 100 µM (inactive)"}, {"measurement": "GI50", "setting": "[26]", "result": "> 100 µM (inactive)"}, {"measurement": "GI50", "setting": "[27]", "result": "> 100 µM (inactive)"}, {"measurement": "GI50", "setting": "[28]", "result": "> 100 µM (inactive)"}, {"measurement": "GI50", "setting": "[29]", "result": "> 100 µM (inactive)"}, {"measurement": "GI50", "setting": "[30]", "result": "> 100 µM (inactive)"}, {"measurement": "GI50", "setting": "[31]", "result": "> 100 µM (inactive)"}, {"measurement": "GI50", "setting": "[32]", "result": "> 100 µM (inactive)"}, {"measurement": "GI50", "setting": "[33]", "result": "> 100 µM (inactive)"}, {"measurement": "GI50", "setting": "[34]", "result": "> 100 µM (inactive)"}, {"measurement": "GI50", "setting": "[35]", "result": "> 100 µM (inactive)"}, {"measurement": "GI50", "setting": "[36]", "result": "> 100 µM (inactive)"}, {"measurement": "GI50", "setting": "[37]", "result": "> 100 µM (inactive)"}, {"measurement": "GI50", "setting": "[38]", "result": "> 100 µM (inactive)"}, {"measurement": "GI50", "setting": "[39]", "result": "> 100 µM (inactive)"}, {"measurement": "GI50", "setting": "[40]", "result": "> 100 µM (inactive)"}, {"measurement": "GI50", "setting": "[41]", "result": "> 100 µM (inactive)"}, {"measurement": "GI50", "setting": "[42]", "result": "> 100 µM (inactive)"}, {"measurement": "GI50", "setting": "[43]", "result": "> 100 µM (inactive)"}, {"measurement": "GI50", "setting": "[44]", "result": "> 100 µM (inactive)"}]}, {"compound": "CC12CCC3[C@@H](CC3(C)C)C(O)(CCC1=O)C2", "note": "(some centres not stated)", "values": [{"measurement": "GI50", "setting": "[2]", "result": "> 100 µM (inactive)"}, {"measurement": "GI50", "setting": "[45]", "result": "> 100 µM (inactive)"}, {"measurement": "GI50", "setting": "[46]", "result": "> 100 µM (inactive)"}, {"measurement": "GI50", "setting": "[3]", "result": "> 100 µM (inactive)"}, {"measurement": "GI50", "setting": "[4]", "result": "> 100 µM (inactive)"}, {"measurement": "GI50", "setting": "[5]", "result": "> 100", "unit": "µM"}, {"measurement": "GI50", "setting": "[6]", "result": "> 100 µM (inactive)"}, {"measurement": "GI50", "setting": "[7]", "result": "> 100 µM (inactive)"}, {"measurement": "GI50", "setting": "[8]", "result": "> 100 µM (inactive)"}, {"measurement": "GI50", "setting": "[9]", "result": "> 100 µM (inactive)"}, {"measurement": "GI50", "setting": "[10]", "result": "> 100 µM (inactive)"}, {"measurement": "GI50", "setting": "[11]", "result": "> 100 µM (inactive)"}, {"measurement": "GI50", "setting": "[12]", "result": "> 100 µM (inactive)"}, {"measurement": "GI50", "setting": "[13]", "result": "> 100 µM (inactive)"}, {"measurement": "GI50", "setting": "[15]", "result": "> 100 µM (inactive)"}, {"measurement": "GI50", "setting": "[16]", "result": "> 100 µM (inactive)"}, {"measurement": "GI50", "setting": "[17]", "result": "> 100 µM (inactive)"}, {"measurement": "GI50", "setting": "[18]", "result": "> 100 µM (inactive)"}, {"measurement": "GI50", "setting": "[47]", "result": "> 100 µM (inactive)"}, {"measurement": "GI50", "setting": "[19]", "result": "> 100 µM (inactive)"}, {"measurement": "GI50", "setting": "[20]", "result": "> 100 µM (inactive)"}, {"measurement": "GI50", "setting": "[22]", "result": "> 100 µM (inactive)"}, {"measurement": "GI50", "setting": "[48]", "result": "> 100 µM (inactive)"}, {"measurement": "GI50", "setting": "[23]", "result": "> 100 µM (inactive)"}, {"measurement": "GI50", "setting": "[24]", "result": "> 100 µM (inactive)"}, {"measurement": "GI50", "setting": "[49]", "result": "> 100 µM (inactive)"}, {"measurement": "GI50", "setting": "[50]", "result": "> 100 µM (inactive)"}, {"measurement": "GI50", "setting": "[25]", "result": "> 100 µM (inactive)"}, {"measurement": "GI50", "setting": "[26]", "result": "> 100 µM (inactive)"}, {"measurement": "GI50", "setting": "[27]", "result": "> 100 µM (inactive)"}, {"measurement": "GI50", "setting": "[51]", "result": "> 100 µM (inactive)"}, {"measurement": "GI50", "setting": "[28]", "result": "> 100 µM (inactive)"}, {"measurement": "GI50", "setting": "[29]", "result": "> 100 µM (inactive)"}, {"measurement": "GI50", "setting": "[30]", "result": "> 100 µM (inactive)"}, {"measurement": "GI50", "setting": "[31]", "result": "> 100 µM (inactive)"}, {"measurement": "GI50", "setting": "[32]", "result": "> 100 µM (inactive)"}, {"measurement": "GI50", "setting": "[33]", "result": "> 100 µM (inactive)"}, {"measurement": "GI50", "setting": "[52]", "result": "> 100 µM (inactive)"}, {"measurement": "GI50", "setting": "[34]", "result": "> 100 µM (inactive)"}, {"measurement": "GI50", "setting": "[35]", "result": "> 100 µM (inactive)"}, {"measurement": "GI50", "setting": "[36]", "result": "> 100 µM (inactive)"}, {"measurement": "GI50", "setting": "[37]", "result": "> 100 µM (inactive)"}, {"measurement": "GI50", "setting": "[38]", "result": "> 100 µM (inactive)"}, {"measurement": "GI50", "setting": "[39]", "result": "> 100 µM (inactive)"}, {"measurement": "GI50", "setting": "[53]", "result": "> 100 µM (inactive)"}, {"measurement": "GI50", "setting": "[54]", "result": "> 100 µM (inactive)"}, {"measurement": "GI50", "setting": "[40]", "result": "> 100 µM (inactive)"}, {"measurement": "GI50", "setting": "[41]", "result": "> 100 µM (inactive)"}, {"measurement": "GI50", "setting": "[42]", "result": "> 100 µM (inactive)"}, {"measurement": "GI50", "setting": "[43]", "result": "> 100 µM (inactive)"}, {"measurement": "GI50", "setting": "[44]", "result": "> 100 µM (inactive)"}, {"measurement": "GI50", "setting": "[55]", "result": "> 100 µM (inactive)"}, {"measurement": "GI50", "setting": "[56]", "result": "> 100 µM (inactive)"}]}]}
